Measurements published in US9403813B2, “Azetidine amide derivatives as orexin receptor antagonists” (ACTELION PHARMACEUTICALS LTD, priority 2013, dated 2016).

Tests used:
[1] = biological target: human orexin-1 receptor (Homo sapiens (Human), UniProt O43613); assay: Intracellular calcium measurements (FLIPR), antagonism of orexin-A response; format: cell-based; conditions: CHO cells expressing human orexin-1 receptor, 3 nM orexin-A, geometric mean if determined several times, read-out: IC50 OX1
How it was run: (§1)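 CHO cells expressing human OX1 or OX2 receptor, loaded with fluo-4 AM plus probenecid, preincubated with antagonist 120 min before 3 nM orexin-A challenge. FLIPR calcium peak heights compared with agonist-plus-vehicle response. IC50 possibly normalized to on-plate reference; geometric mean of repeat determinations.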

[2] = biological target: human orexin-2 receptor (Homo sapiens (Human), UniProt O43614); assay: as above; format: cell-based; conditions: CHO cells expressing human orexin-2 receptor, 3 nM orexin-A, geometric mean if determined several times, read-out: IC50 OX2
How it was run: as §1

Chain of human orexin-2 receptor (O43614 whole entry): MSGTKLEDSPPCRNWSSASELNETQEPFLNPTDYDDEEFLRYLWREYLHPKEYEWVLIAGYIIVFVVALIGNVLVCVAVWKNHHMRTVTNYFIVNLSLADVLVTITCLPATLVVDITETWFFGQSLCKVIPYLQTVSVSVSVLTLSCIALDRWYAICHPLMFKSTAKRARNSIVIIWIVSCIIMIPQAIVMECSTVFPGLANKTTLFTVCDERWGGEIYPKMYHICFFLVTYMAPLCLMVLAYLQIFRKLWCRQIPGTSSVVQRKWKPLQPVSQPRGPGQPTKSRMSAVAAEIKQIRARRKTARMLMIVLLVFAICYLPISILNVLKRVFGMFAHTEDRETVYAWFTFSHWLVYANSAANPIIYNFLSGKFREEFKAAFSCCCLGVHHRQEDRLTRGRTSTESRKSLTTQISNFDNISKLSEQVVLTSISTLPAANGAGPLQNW
Chain of human orexin-1 receptor (O43613 whole entry): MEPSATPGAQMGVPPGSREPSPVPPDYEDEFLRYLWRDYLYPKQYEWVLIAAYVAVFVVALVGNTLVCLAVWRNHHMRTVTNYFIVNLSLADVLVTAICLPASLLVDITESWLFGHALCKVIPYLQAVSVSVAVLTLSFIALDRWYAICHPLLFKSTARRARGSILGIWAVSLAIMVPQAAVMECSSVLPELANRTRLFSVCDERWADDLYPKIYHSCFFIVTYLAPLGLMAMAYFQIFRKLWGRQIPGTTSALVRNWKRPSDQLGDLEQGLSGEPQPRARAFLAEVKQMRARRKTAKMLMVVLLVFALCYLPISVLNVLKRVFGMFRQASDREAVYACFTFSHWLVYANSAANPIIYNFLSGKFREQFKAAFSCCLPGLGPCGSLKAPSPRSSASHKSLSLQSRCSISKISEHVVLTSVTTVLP

SMILES | IC50 [1] [nM] | IC50 [2] [nM]
O=C(c1cc(OC(F)(F)F)ccc1-n1nccn1)N1CC[C@H]1c1nc(-c2ccccc2OC(F)(F)F)no1 [Example 47, (2-[1,2,3]Triazol-2-yl-5-trifluoromethoxy-phenyl)-{(S)-2-[3-(2-trifluoromethoxy-phenyl)-[1,2,4]oxadiazol-5-yl]-azetidin-1-yl}-methanone] | 618 | 727
COc1cc(C(=O)N2CC[C@H]2c2nc(-c3cccc(F)c3OC)no2)c(-n2nccn2)cc1C [Example 17, {(S)-2-[3-(3-Fluoro-2-methoxy-phenyl)-[1,2,4]oxadiazol-5-yl]-azetidin-1-yl}-(5-methoxy-4-methyl-2-[1,2,3]triazol-2-yl-phenyl)-methanone] | 439 | 9
COc1cc(C(=O)N2CC[C@H]2c2nc(-c3cccc(F)c3OC)no2)c(-n2nccn2)cc1F [Example 26, {(S)-2-[3-(3-Fluoro-2-methoxy-phenyl)-[1,2,4]oxadiazol-5-yl]-azetidin-1-yl}-(4-fluoro-5-methoxy-2-[1,2,3]triazol-2-yl-phenyl)-methanone] | 2080 | 26
CN(C)c1nc(C(=O)N2CC[C@H]2c2nc(-c3ccccc3OC(F)(F)F)no2)c(-c2ccccc2)s1 [Example 41, (2-Dimethylamino-5-phenyl-thiazol-4-yl)-{(S)-2-[3-(2-trifluoromethoxy-phenyl)-[1,2,4]oxadiazol-5-yl]-azetidin-1-yl}-methanone] | 43 | 10
COc1cc(C(=O)N2CC[C@H]2c2nc(-c3cccc(F)c3C)no2)c(-n2nccn2)cc1F [Example 25, (4-Fluoro-5-methoxy-2-[1,2,3]triazol-2-yl-phenyl)-{(S)-2-[3-(3-fluoro-2-methyl-phenyl)-[1,2,4]oxadiazol-5-yl]-azetidin-1-yl}-methanone] | 1750 | 27
Cc1cccc(-c2scnc2C(=O)N2CC[C@H]2c2nc(-c3cccc(Cl)c3C)no2)c1 [Example 69, {(S)-2-[3-(3-Chloro-2-methyl-phenyl)-[1,2,4]oxadiazol-5-yl]-azetidin-1-yl}-(5-m-tolyl-thiazol-4-yl)-methanone] | 864 | 240
Cc1onc(-c2ccccc2Cl)c1C(=O)N1CC[C@H]1c1nc(-c2ccccc2OC(F)(F)F)no1 [Example 53, [3-(2-Chloro-phenyl)-5-methyl-isoxazol-4-yl]-{(S)-2-[3-(2-trifluoromethoxy-phenyl)-[1,2,4]oxadiazol-5-yl]-azetidin-1-yl}-methanone] | 1230 | 1190
Cc1ccc(-n2nccn2)c(C(=O)N2CC[C@H]2c2nc(-c3cc(C)ccc3C)no2)c1 [Example 10, {(S)-2-[3-(2,5-Dimethyl-phenyl)-[1,2,4]oxadiazol-5-yl]-azetidin-1-yl}-(5-methyl-2-[1,2,3]triazol-2-yl-phenyl)-methanone] | 335 | 17
CCOc1ncccc1-c1noc([C@@H]2CCN2C(=O)c2cc(OC)c(C)cc2-n2nccn2)n1 [Example 34, {(S)-2-[3-(2-Ethoxy-pyridin-3-yl)-[1,2,4]oxadiazol-5-yl]-azetidin-1-yl}-(5-methoxy-4-methyl-2-[1,2,3]triazol-2-yl-phenyl)-methanone] | 238 | 5
Cc1ccc(-c2ccccc2)c(C(=O)N2CC[C@H]2c2nc(-c3cccc(Cl)c3C)no2)c1 [Example 57, {(S)-2-[3-(3-Chloro-2-methyl-phenyl)-[1,2,4]oxadiazol-5-yl]-azetidin-1-yl}-(4-methyl-biphenyl-2-yl)-methanone] | 89 | 4
COc1c(F)cccc1-c1noc([C@@H]2CCN2C(=O)c2cc(C)ccc2-n2nccn2)n1 [Example 16, {(S)-2-[3-(3-Fluoro-2-methoxy-phenyl)-[1,2,4]oxadiazol-5-yl]-azetidin-1-yl}-(5-methyl-2-[1,2,3]triazol-2-yl-phenyl)-methanone] | 641 | 17

Now from value to compound:

IC50 [1] [nM] | IC50 [2] [nM] | SMILES
1340 | 78 | COc1cc(C(=O)N2CC[C@H]2c2noc(-c3ccccc3OC(F)(F)F)n2)c(-n2nccn2)cc1F [Example 87, (4-Fluoro-5-methoxy-2-[1,2,3]triazol-2-yl-phenyl)-{(S)-2-[5-(2-trifluoromethoxy-phenyl)-[1,2,4]oxadiazol-3-yl]-azetidin-1-yl}-methanone]
167 | 13 | Cc1cc(-n2nccn2)c(C(=O)N2CC[C@H]2c2nc(-c3ccccc3OC(F)(F)F)no2)cc1Cl [Example 83, (5-Chloro-4-methyl-2-[1,2,3]triazol-2-yl-phenyl)-{(S)-2-[3-(2-trifluoromethoxy-phenyl)-[1,2,4]oxadiazol-5-yl]-azetidin-1-yl}-methanone]
326 | 11 | COc1cc(C(=O)N2CC[C@H]2c2noc(-c3ccccc3OC(F)(F)F)n2)c(-n2nccn2)cc1Cl [Example 94, (4-Chloro-5-methoxy-2-[1,2,3]triazol-2-yl-phenyl)-{(S)-2-[5-(2-trifluoromethoxy-phenyl)-[1,2,4]oxadiazol-3-yl]-azetidin-1-yl}-methanone]
88 | 8 | Cc1ccc(-n2nccn2)c(C(=O)N2CC[C@H]2c2noc(-c3cccc(Cl)c3C)n2)c1 [Example 101, {(S)-2-[5-(3-Chloro-2-methyl-phenyl)-[1,2,4]oxadiazol-3-yl]-azetidin-1-yl}-(5-methyl-2-[1,2,3]triazol-2-yl-phenyl)-methanone]
38 | 4 | COc1c(Cl)cccc1-c1nc([C@@H]2CCN2C(=O)c2ccc(Cl)cc2-n2nccn2)no1 [Example 119, {(S)-2-[5-(3-Chloro-2-methoxy-phenyl)-[1,2,4]oxadiazol-3-yl]-azetidin-1-yl}-(4-chloro-2-[1,2,3]triazol-2-yl-phenyl)-methanone]
60 | 6 | Cc1cc(-n2nccn2)c(C(=O)N2CC[C@H]2c2noc(-c3ccccc3OC(F)(F)F)n2)cc1Cl [Example 95, (5-Chloro-4-methyl-2-[1,2,3]triazol-2-yl-phenyl)-{(S)-2-[5-(2-trifluoromethoxy-phenyl)-[1,2,4]oxadiazol-3-yl]-azetidin-1-yl}-methanone]
13400 | 450 | Cc1ccc(-n2nccn2)c(C(=O)N2CC[C@H]2c2nnc(-c3ccccc3)[nH]2)c1 [Example 120, (5-Methyl-2-[1,2,3]triazol-2-yl-phenyl)-[(S)-2-(5-phenyl-4H-[1,2,4]triazol-3-yl)-azetidin-1-yl]-methanone]
82 | 0.7 | COc1cc(C(=O)N2CC[C@H]2c2noc(-c3cccc(Cl)c3OC)n2)c(-n2nccn2)cc1C [Example 111, {(S)-2-[5-(3-Chloro-2-methoxy-phenyl)-[1,2,4]oxadiazol-3-yl]-azetidin-1-yl}-(5-methoxy-4-methyl-2-[1,2,3]triazol-2-yl-phenyl)-methanone]
132 | 3 | COc1c(Cl)cccc1-c1nc([C@@H]2CCN2C(=O)c2cc(C)ccc2-n2nccn2)no1 [Example 109, {(S)-2-[5-(3-Chloro-2-methoxy-phenyl)-[1,2,4]oxadiazol-3-yl]-azetidin-1-yl}-(5-methyl-2-[1,2,3]triazol-2-yl-phenyl)-methanone]
561 | 5 | COc1cc(C(=O)N2CC[C@H]2c2noc(-c3cccc(Cl)c3C)n2)c(-c2ncccn2)cc1C [Example 116, {(S)-2-[5-(3-Chloro-2-methyl-phenyl)-[1,2,4]oxadiazol-3-yl]-azetidin-1-yl}-(5-methoxy-4-methyl-2-pyrimidin-2-yl-phenyl)-methanone]
606 | 32 | Cc1ccc(-c2ncccn2)c(C(=O)N2CC[C@H]2c2noc(-c3cccc(Cl)c3C)n2)c1 [Example 117, {(S)-2-[5-(3-Chloro-2-methyl-phenyl)-[1,2,4]oxadiazol-3-yl]-azetidin-1-yl}-(5-methyl-2-pyrimidin-2-yl-phenyl)-methanone]
26 | 2 | Cc1ccc(-c2ccccc2)c(C(=O)N2CC[C@H]2c2noc(-c3cccc(Cl)c3C)n2)c1 [Example 114, {(S)-2-[5-(3-Chloro-2-methyl-phenyl)-[1,2,4]oxadiazol-3-yl]-azetidin-1-yl}-(4-methyl-biphenyl-2-yl)-methanone]
20 | 1 | CCOc1ncccc1-c1nc([C@@H]2CCN2C(=O)c2cc(Cl)c(C)cc2-n2nccn2)no1 [Example 99, (5-Chloro-4-methyl-2-[1,2,3]triazol-2-yl-phenyl)-{(S)-2-[5-(2-ethoxy-pyridin-3-yl)-[1,2,4]oxadiazol-3-yl]-azetidin-1-yl}-methanone]
315 | 16 | O=C(c1ccc(Cl)cc1-n1nccn1)N1CC[C@H]1c1nnc(-c2ccccc2OC(F)(F)F)[nH]1 [Example 132, (4-Chloro-2-[1,2,3]triazol-2-yl-phenyl)-{(S)-2-[5-(2-trifluoromethoxy-phenyl)-4H-[1,2,4]triazol-3-yl]-azetidin-1-yl}-methanone]
909 | 11 | Cc1c(Cl)cccc1-c1noc([C@@H]2CCN2C(=O)c2ccc(Cl)cc2-n2nccn2)n1 [Example 76, {(S)-2-[3-(3-Chloro-2-methyl-phenyl)-[1,2,4]oxadiazol-5-yl]-azetidin-1-yl}-(4-chloro-2-[1,2,3]triazol-2-yl-phenyl)-methanone]
46 | 1 | COc1c(Cl)cccc1-c1nc([C@@H]2CCN2C(=O)c2cc(C)c(C)cc2-n2nccn2)no1 [Example 110, {(S)-2-[5-(3-Chloro-2-methoxy-phenyl)-[1,2,4]oxadiazol-3-yl]-azetidin-1-yl}-(4,5-dimethyl-2-[1,2,3]triazol-2-yl-phenyl)-methanone]
